# Measurements: patent US12377092B2, “Polycomb inhibitors and uses thereof” (FONDAZIONE ISTITUTO FIRC DI ONCOLOGIA MOLECOLARE (IFOM), priority 2017, dated 2025)
# Tests used:
# [1] = biological target: T1, Bmi1 (Mus musculus, UniProt P25916); assay: Western blot analysis of Bmi1, wild type and CCM3 knock out immortalized lung endothelial cells; assay type: cell-based; settings: 24 hours of treatment, 1 uM PTC209 vs DMSO
# T1 construct: western blot analysis of Bmi1 on lysates from confluent wild type (WT) and CCM3 knockout (CCM3-KO) cells treated with PTC209; endogenous in cells; host or cells: immortalized mouse lung endothelial cells, wild type and CCM3 knock out (VECPAC/CCM3 fl/fl, TAT-Cre)
# T1 sequence (P25916 1-324): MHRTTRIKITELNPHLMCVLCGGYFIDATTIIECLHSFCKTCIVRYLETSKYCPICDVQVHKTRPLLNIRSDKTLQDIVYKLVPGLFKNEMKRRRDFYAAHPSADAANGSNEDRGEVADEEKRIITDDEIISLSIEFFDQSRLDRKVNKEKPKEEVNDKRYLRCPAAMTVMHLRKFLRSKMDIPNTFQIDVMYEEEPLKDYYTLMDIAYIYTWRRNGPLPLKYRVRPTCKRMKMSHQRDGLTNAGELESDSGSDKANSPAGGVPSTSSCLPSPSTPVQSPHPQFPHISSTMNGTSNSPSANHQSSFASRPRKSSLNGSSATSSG
# Procedure: (§1) Confluent cells were lysed with boiling modified Laemi sample Buffer (2% SDS, 20% glycerol, and 125 mM Tris-HCl, pH 6.8). Lysates were incubated for 10 minutes at 100° C. to allow proteins denaturation. Protein concentration was estimated using the BCA Protein Assay Kit (Pierce). Equal amount of proteins was loaded on a gel, separated by SDS-PAGE and transferred to a Protran Nitrocellulose Membrane (Whatman) 0.2 um pores. The membranes were blocked for 1 hour at RT in Tris Buffered Saline (TBS: NaCl 150 mM, Tris-HCl 10 mM pH 7.4) plus 0.1% Tween-20 containing 5% BSA or milk. The membranes were incubated with primary antibodies diluted in TBST (TBS plus 0.1% Tween-20) containing 5% of either BSA or milk overnight at 4° C. Next, membranes were rinsed three times with TBST for 5 minutes each and incubated for 45 minutes at RT with HRP-linked secondary antibodies diluted in TBST containing 5% BSA/milk. Membranes were rinsed three times with TBST for 5 minutes each and specific bindings were detected by enhanced chemiluminescence (ECL) system (Amersham Bioscience) using ChemiDoc XRS gel imaging system (Bio-Rad).
# CCM3 knock out cells were immortalized lung endothelial cells derived from VECPAC/CCM3^fl/fl mice, treated with TAT-Cre recombinase. […] As control the same cell line without TAT-Cre treatment were used. […]
# [2] = system: EndMT markers (Klf4, Sca1 and Fsp1); assay: Immunofluorescence analysis of EndMT markers, CCM1 knock out cells; assay type: cell-based, mouse; settings: CCM1 knockout cells; PTC209 vs DMSO
# Procedure: Treatment with PTC209 was performed with the same experimental conditions used for CCM3 model. After treatment cells were analysed by western blot (FIG. 9), real time (FIG. 10) and immunofluorescence (FIG. 11) analysis. […] This observation resembled what was previously observed for human patients as well as for CCM3 mouse model, namely that mutation in Ccm3 led to a more severe phenotype, with higher risk of cerebral haemorrhage and more severe malformations, compare to patients with mutation in Ccm1 and Ccm2 (Denier et al., 2006).
# [3] = system: EndMT markers (Klf4, Sca1 and Fsp1); assay: RT-PCR of EndMT markers, freshly isolated brain endothelial cells knockout for CCM3; assay type: cell-based, mouse; settings: freshly isolated brain endothelial cells CCM3fl/fl+TAT-Cre; PTC209 72 hours from the day after recombination
# Excerpt: Brain-derived ECs were isolated from VECPAC/CCM3^fl/fl/R26-Confetti. Brains were processed with two different MiltenyiBiotec kits depending on the age at which the mice were sacrificed: “Adult Brain Dissociation Kit”, for […] 7-days old mice, or “Neural Tissue Dissociation Kit” for less than 7-days old mice. All protocols and data sheet are available at www.milteniyibiotec.com.
# Recombination of the loxP-flanked genes was induced by treating cells the day after the first splitting (1:2) with 100 ug/mL TAT-Cre-recombinase for 60 minutes in HyClone™ ADCF-MAb medium (GE Healthcare) without serum followed by 100 uM chloroquine for 30 minutes. The cells were washed with HyClone™ ADCF-MAb medium and cultured with complete medium.
# RNA extraction was performed both with (A) RNeasy kits (Promega) or (B) RNAeasy Mini Kit (QIAGEN). The latter allows also the extraction of proteins from the same sample. […] For each sample, the expression level was determined with the comparative threshold cycle (Ct) method, and normalized to the housekeeping genes encoding 18S, glyceraldehyde-3-phosphate dehydrogenase (GAPDH) and hypoxanthine-guanine phosphoribosyltransferase (hprt1). Ct or threshold cycle, represents the PCR cycle at which an increase in reporter fluorescence above a base-line signal can first be detect. […]
# [4] = system: VE-cadherin; assay: Western blot analysis of VE-cadherin, CCM3 knock out cells; assay type: cell-based, mouse; settings: 72 hours
# Procedure: Cells were seeded 6.3×10^4 cells/cm^2. The day after, PTC209 and UNC1999 were added to the confluent cells. Drugs were left for one or three days depending on the aim of the experiment. Final concentrations used for the two drugs were: 1 uM PTC209 and 5 uM UNC1999.
# as §1, with “The membranes were incubated with primary antibodies diluted in TBST (TBS plus 0.1% Tween-20) containing 5% of either BSA or milk overnight at 4° C. Next, membranes were rinsed three times with TBST for 5 minutes each and incubated for 45 minutes at RT with HRP-linked secondary antibodies diluted in TBST containing 5% BSA/milk.” left out
# Experiment with combined PTC209 and UNC1999 treatments was repeated with the same experimental conditions described before and junction organisation was analysed through VE-cadherin staining and protein expression analysis (FIG. 19).
# [5] = system: VE-cadherin; assay: Real time analysis of VE-cadherin transcript, CCM3 knock out cells; assay type: cell-based, mouse; settings: PTC209
# Procedure: RNA extraction was performed both with (A) RNeasy kits (Promega) or (B) RNAeasy Mini Kit (QIAGEN). The latter allows also the extraction of proteins from the same sample. The RNA (500 ng) was reverse transcribed with random hexamers (High Capacity cDNA Archive kits; Applied Biosystems) in a final volume of 30 uL. Reaction were made with a thermocycler (Eppendorf) 10 min at 25° C. followed by 2 hours at 37° C. cDNA (5 ng) was amplified in triplicate in a reaction volume of 15 uL using TaqMan Gene Expression Assays (Applied Biosystems) in a ABI/Prism 7900 HT using a pre PCR step of 10 min at 95° C., followed by 40 cycles of 15 seconds at 95° C. and 60 seconds at 60° C. For each sample, the expression level was determined with the comparative threshold cycle (Ct) method, and normalized to the housekeeping genes encoding 18S, glyceraldehyde-3-phosphate dehydrogenase (GAPDH) and hypoxanthine-guanine phosphoribosyltransferase (hprt1). Ct or threshold cycle, represents the PCR cycle at which an increase in reporter fluorescence above a base-line signal can first be detect.
# Western blot and real time analysis of VE-cadherin were performed in parallel to confirm the reduction of VE-cadherin observed by immunofluorescence (FIG. 8A-C). VE-cadherin protein and transcript levels, as expected, were reduced in CCM3 knock out cells compare to wild type, as already shown (Bravi et al., 2015).
smiles,measurement,setting,value
"COc1cc(Br)c(Nc2nc(-c3c(C)nc4ncccn34)cs2)c(Br)c1 [PTC209, N-(2,6-dibromo-4-methoxyphenyl)-4-(2-methylimidazo[1,2-a]pyrimidin-3-yl)thiazol-2-amine]",Bmi1 protein expression (western blot),[1]; CCM3 knock out cells,downregulation of Bmi1
same,Bmi1 protein expression (western blot),[1]; wild type cells,downregulation of Bmi1
same,"upregulation of Klf4, Sca1 and Fsp1 (relative fluorescence intensity)",[2],inhibited
same,Klf4 expression (RT-PCR),[3],not downregulated
same,Sca1 and Fsp1 expression (RT-PCR),[3],strongly reduced
same,VE-cadherin protein expression level (western blot),[4],did not show any rescue
same,VE-cadherin transcript level (real time analysis),[5],did not rescue
